Data published in patent publication US12319664B2, “Herbicidally active 3-phenylisoxazoline-5-carboxamides of cyclopentenylcarboxylic acid derivatives” (Bayer Aktiengesellschaft, priority 2018, dated 2025).

Assays:
[1] = system: AVEFA; test: Post-emergence herbicidal action against AVEFA; assay type: in vivo, Avena fatua; settings: application rate 80 g/ha, rated visually after about 3 weeks
Experimental: (§1) [table] 2. Post-emergence herbicidal action against harmful plants and crop plant compatibility Seeds of monocotyledonous and dicotyledonous weeds and crop plants are placed in sandy loam in plastic or wood-fibre pots, covered with soil and cultivated in a greenhouse under controlled growth conditions. 2 to 3 weeks after sowing, the test plants are treated at the one-leaf stage. The compounds of the invention, formulated in the form of wettable powders (WP) or as emulsion concentrates (EC), are then sprayed onto the green parts of the plants as aqueous suspension or emulsion with addition of 0.5% additive at a water application rate of 600 l/ha (converted). After the test plants have been kept in the greenhouse under optimum growth conditions for about 3 weeks, the activity of the preparations is rated visually in comparison to untreated controls. For example, 100% activity=the plants have died, 0% activity=like control plants.

[2] = system: AMARE; test: Post-emergence herbicidal action against AMARE; assay type: in vivo, Amaranthus retroflexus; settings: application rate 80 g/ha, rated visually about 3 weeks after treatment
Experimental: as §1

[3] = system: PHBPU; test: Post-emergence herbicidal action against PHBPU; assay type: in vivo, Pharbitis purpurea; settings: application rate 80 g/ha, rated visually about 3 weeks after treatment
Experimental: as §1

[4] = system: ECHCG; test: Post-emergence herbicidal action against ECHCG; assay type: in vivo, Echinochloa crus-galli; settings: application rate 80 g/ha, rated visually after about 3 weeks
Experimental: as §1

[5] = system: LOLRI; test: Post-emergence herbicidal action against LOLRI; assay type: in vivo, Lolium rigidum; settings: application rate 80 g/ha, rated visually after about 3 weeks
Experimental: as §1

[6] = system: HORMU; test: Post-emergence herbicidal action against HORMU; assay type: in vivo, Hordeum murinum; settings: application rate 80 g/ha
Experimental: as §1

[7] = system: POLCO; test: Post-emergence herbicidal action against POLCO; assay type: in vivo, Polygonum convolvulus; settings: application rate 80 g/ha, rated visually about 3 weeks after treatment
Experimental: as §1

[8] = system: STEME; test: Post-emergence herbicidal action against STEME; assay type: in vivo, Stellaria media; settings: application rate 80 g/ha, rated visually about 3 weeks after treatment
Experimental: as §1

[9] = system: VERPE; test: Post-emergence herbicidal action against VERPE; assay type: in vivo, Veronica persica; settings: application rate 80 g/ha
Experimental: as §1

[10] = system: ALOMY; test: Post-emergence herbicidal action against ALOMY; assay type: in vivo, Alopecurus myosuroides; settings: application rate 80 g/ha, rated visually after about 3 weeks
Experimental: as §1

[11] = system: SETVI; test: Post-emergence herbicidal action against SETVI; assay type: in vivo, Setaria viridis; settings: application rate 80 g/ha, rated visually after about 3 weeks
Experimental: as §1

[12] = system: ABUTH; test: Post-emergence herbicidal action against ABUTH; assay type: in vivo, Abutilon theophrasti; settings: application rate 80 g/ha, rated visually about 3 weeks after treatment
Experimental: as §1

SMILES | Herbicidal action against [%] AVEFA [1] [%] | Herbicidal action against [%] AMARE [2] [%] | Herbicidal action against [%] PHBPU [3] [%] | Herbicidal action against [%] ECHCG [4] [%] | Herbicidal action against [%] LOLRI [5] [%] | Herbicidal action against [%] HORMU [6] [%] | Herbicidal action against [%] POLCO [7] [%] | Herbicidal action against [%] STEME [8] [%] | Herbicidal action against [%] VERPE [9] [%] | Herbicidal action against [%] ALOMY [10] [%] | Herbicidal action against [%] SETVI [11] [%] | Herbicidal action against [%] ABUTH [12] [%]
C=CC1(C(=O)NC2CC=C(C(=O)NS(N)(=O)=O)C2)CC(c2cc(F)cc(F)c2)=NO1 (mixture of isomers) [IV-10] | 90 | 80 | 90 | 90 | 90 | 90 |  |  |  |  |  | 
C=C[C@]1(C(=O)N[C@H]2C=C[C@H](C(=O)OC)C2)CC(c2cc(F)cc(F)c2)=NO1 [Example I-054] | 100 | 80 | 80 | 90 | 100 | 90 | 80 | 80 | 90 | 90 | 80 | 
CC1(C(=O)NC2C=CC(C(=O)OCCCl)C2)CC(c2cccc(C#N)c2)=NO1 (mixture of isomers) [Example I-079] | 90 | 90 |  | 80 |  | 100 | 90 | 80 | 90 | 90 | 90 | 80
COc1cc(OC)cc(C2=NOC(C(=O)NC3C=CC(C(=O)OCCCl)C3)(C(F)(F)F)C2)c1 (mixture of isomers) [Example I-044] | 80 | 80 | 80 | 90 |  | 100 |  |  |  |  |  | 90
C=CC1(C(=O)NC2C=CC(C(=O)OC)C2)CC(c2cc(F)cc(F)c2)=NO1 (mixture of isomers) [Example I-035] | 90 | 80 |  | 90 | 90 | 90 | 80 | 90 | 80 | 90 | 80 | 80
Cc1cc(C2=NOC(C(=O)NC3C=CC(C(=O)OCCCl)C3)(C(F)(F)F)C2)cc(C(F)(F)F)c1 (mixture of isomers) [Example I-049] | 90 | 90 | 90 |  | 90 | 90 |  |  | 80 | 90 |  | 
C=CC1(C(=O)NC2C=CC(C(=O)NC(C)(C)C(F)(F)F)C2)CC(c2cc(F)cc(F)c2)=NO1 (single isomer, unassigned) [II-24] |  |  | 80 |  |  |  |  |  | 80 |  |  | 
COC(=O)[C@@H]1C=C[C@H](NC(=O)C2(C(F)(F)F)CC(c3ccccc3)=NO2)C1 (stereo partly shown) [Example I-026] | 100 | 90 | 80 | 80 | 90 | 90 | 80 | 80 | 80 | 100 | 90 | 
O=C(OCC(F)(F)F)C1C=CC(NC(=O)C2(C(F)(F)F)CC(c3cccc(Cl)c3)=NO2)C1 (mixture of isomers) [Example I-051] | 90 |  | 80 | 80 | 90 | 90 |  | 90 | 80 | 100 |  | 80
O=C(OCC(F)(F)F)[C@@H]1C=C[C@H](NC(=O)C2(C(F)(F)F)CC(c3ccccc3)=NO2)C1 (stereo partly shown) [Example I-030] | 100 | 90 | 80 | 80 | 100 | 90 | 90 |  | 80 | 90 | 90 | 
CC(C)(C)OC(=O)[C@@H]1C=C[C@H](NC(=O)C2(C)CC(c3cccc(C#N)c3)=NO2)C1 (stereo partly shown) [Example I-095] |  |  | 90 |  |  |  | 90 |  | 80 | 90 |  | 
C=CC1(C(=O)N[C@H]2C=C[C@H](C(=O)NC(C)(C)C#N)C2)CC(c2cc(F)cc(F)c2)=NO1 (stereo partly shown) [II-19] |  |  | 90 |  |  |  |  |  |  |  |  | 
C=CC1(C(=O)NC2C=CC(C(=O)NS(=O)(=O)CC(=O)OC)C2)CC(c2cc(F)cc(F)c2)=NO1 (mixture of isomers) [II-18] | 100 | 80 | 80 | 80 | 80 | 90 |  | 80 | 80 | 100 | 90 | 
CCOC(=O)C1C=CC(NC(=O)C2(C)CC(c3cccc(C#N)c3)=NO2)C1 (mixture of isomers) [Example I-069] | 90 | 80 |  | 90 | 90 | 90 | 80 | 80 | 80 | 90 | 80 | 80
O=C(C1C=CC(NC(=O)C2(C(F)(F)F)CC(c3cc(F)cc(F)c3)=NO2)C1)N1CCCO1 (mixture of isomers) [II-32] | 90 | 80 |  | 90 | 90 | 90 | 90 | 90 | 80 | 90 | 80 | 80
CC1(C(=O)NC2C=CC(C(=O)NC(C)(C)C(F)(F)F)C2)CC(c2cc(F)cc(F)c2)=NO1 (mixture of isomers) [II-08] |  |  | 90 |  |  |  |  | 90 | 80 | 80 |  | 
